Patent publication US20240158430A1, “NOVEL COMPOUND OR SALT THEREOF, AND ANTITUMOR ACTIVATOR CONTAINING SAME AS ACTIVE INGREDIENT” (AKITA UNIVERSITY, priority 2021, published 2024)

Tests used:
MSTO-211H cells = assay: Antitumor effect on malignant mesothelioma cells, animal model; assay type: in vivo, nude mice
Protocol: An animal model was used to investigate the antitumor effect of GO-Y199 on malignant mesothelioma cells. The method is as follows. 2.8×10^6 MSTO-211H cells were intraperitoneally transplanted into each of 5 nude mice. From Day 5, 43 μL of 100 mM GO-Y199 in DMSO was diluted to 500 μL with PBS and intraperitoneally administered to the mice (equivalent to 5 mg of GO-Y199). As a control group, a DMSO-PBS solution having the equivalent concentration was intraperitoneally administered to each of four nude mice to which MSTO-211H cells were intraperitoneally transplanted in the same manner. The administration was performed 5 times in total at intervals of 5 days. After 30 days, the mice were sacrificed, necropsied, and analyzed.

[1] = test system: colorectal cancer cell line HT29; assay: Cell growth inhibitory activity, HT29; assay type: cell-based; details: Table 4; 72 hours

SMILES: COCOc1cc(/C=C/C(=O)CC(SCCOCCOCCOCCOCc2cn([C@@H]3O[C@H](CO)[C@@H](O[C@@H]4O[C@H](CO)[C@H](O)[C@H](O)[C@H]4O)[C@H](O)[C@H]3O)nn2)c2cc(OCOC)cc(OCOC)c2)cc(OCOC)c1 (stereo partly drawn) [GO-Y199]
- animals with microscopic peritoneal disseminated lesions (MSTO-211H cells; 5 mg i.p., 5 times at intervals of 5 days, after 30 days, control 75%): 80%
- size (maximum diameter) of disseminated nodule (MSTO-211H cells; 5 mg i.p., 5 times, after 30 days, control 6 to 13 mm): 5 mm
- animals with disseminated nodule of maximum diameter exceeding 5 mm (MSTO-211H cells; 5 mg i.p., 5 times, after 30 days, control 100%): 20%
- pathologic analysis, inside of the disseminated nodule (MSTO-211H cells; control filled with tumor cells): necrotic
- tumor formation at the puncture site (MSTO-211H cells; not observed in control group): one animal
- IC50 [1]: 750 nM
